Laboratory results published in PubChem BioAssay (NCI).
Converted amounts (≈) assume the structure as drawn.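 48-hour exposure; five concentrations; linearly interpolated endpoints. GI50 = concentration required for 50% inhibition of growth. TGI: total growth inhibition.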

What was measured:
Assay in all cases: inhibition of tumour cell growth, NCI panel, 48 h
[1] = tested on: MOLT-4 leukemia
[2] = tested on: TK-10 renal
[3] = tested on: SR leukemia
[4] = tested on: NCI-H23 lung
[5] = tested on: U251 CNS
[6] = tested on: HL-60(TB) leukemia
[7] = tested on: CCRF-CEM leukemia
[8] = tested on: EKVX NSCLC
[9] = tested on: MDA-N
[10] = tested on: NCI/ADR-RES ovarian

SMILES: Brc1ccc(C[P+]2(c3ccccc3)CCCCC2)cc1
- TGI [1]: > 100 µM
- TGI [2]: > 100 µM
- TGI [3]: > 100 µM
- TGI [4]: > 100 µM
- TGI [5]: > 100 µM
- TGI [6]: 75.8 µM
- TGI [7]: > 100 µM
- TGI [8]: > 100 µM

SMILES: O=C(N/N=C/c1cc(Cl)cc(Cl)c1[O-])c1ccccc1O.O=C(N/N=C/c1cc(Cl)cc(Cl)c1[O-])c1ccccc1O.[Co+2]
- GI50 [1]: 0.23 µM
- TGI [1]: 15.7 µM
- TGI [2]: 12 µM
- TGI [3]: 0.532 µM
- GI50 [4]: 0.814 µM
- TGI [4]: 5.47 µM
- TGI [5]: 3.73 µM
- TGI [6]: 0.634 µM
- GI50 [8]: 1.02 µM
- TGI [8]: 14.8 µM

SMILES: O=C(O)Cc1ccc(Nc2nc3cc(C(F)(F)F)ccc3nc2C(=O)O)cc1
- TGI [1]: > 100 µM
- TGI [9]: > 100 µM
- TGI [2]: > 100 µM
- TGI [3]: > 100 µM
- TGI [4]: > 100 µM
- TGI [5]: > 100 µM
- TGI [6]: > 100 µM
- TGI [8]: > 100 µM
- TGI [10]: > 100 µM

SMILES: OC1(c2ccc(-c3ccccc3)cc2)c2ccccc2C2=NCCN21 (centres undefined)
- TGI [1]: > 100 µM
- TGI [9]: > 100 µM
- TGI [2]: > 100 µM
- TGI [3]: > 100 µM
- TGI [4]: 52.6 µM
- TGI [5]: > 100 µM
- TGI [6]: > 100 µM
- TGI [7]: > 100 µM
- TGI [10]: > 100 µM

SMILES: CS(=O)(=O)c1nc(-c2cc3c(c(S(C)(=O)=O)n2)CCCC3)cc2c1CCCCC2
- TGI [9]: > 100 µM
- TGI [2]: > 100 µM
- TGI [4]: > 100 µM
- TGI [5]: > 100 µM
- TGI [6]: > 100 µM
- TGI [7]: > 100 µM
- TGI [8]: > 100 µM
- TGI [10]: > 100 µM

SMILES: COC(=O)CCC1=C(CC(=O)OC)C(C)(OC)N=C1NC(=O)OCc1ccccc1 (centres undefined)
- TGI [1]: > 100 µM
- TGI [2]: > 100 µM
- TGI [3]: > 100 µM
- TGI [4]: > 100 µM
- TGI [5]: > 100 µM
- TGI [7]: > 100 µM
- TGI [8]: > 100 µM
- TGI [10]: > 100 µM

SMILES: CC(=O)c1c(C)nc(SSc2nc(C)c(C(C)=O)c(-c3ccc(Cl)cc3)c2C#N)c(C#N)c1-c1ccc(Cl)cc1
- GI50 [1]: 134 µg/mL
- TGI [1]: > 150 µg/mL
- GI50 [2]: 102 µg/mL (≈ 170 µM)
- TGI [2]: > 150 µg/mL
- GI50 [3]: > 150 µg/mL
- TGI [3]: > 150 µg/mL
- GI50 [4]: 67.4 µg/mL
- TGI [4]: > 150 µg/mL
- GI50 [5]: 53.6 µg/mL (≈ 88.8 µM)
- TGI [5]: > 150 µg/mL
- GI50 [6]: > 150 µg/mL
- TGI [6]: > 150 µg/mL
- GI50 [7]: > 150 µg/mL
- TGI [7]: > 150 µg/mL
- GI50 [8]: 145 µg/mL
- TGI [8]: > 150 µg/mL
- GI50 [10]: 118 µg/mL (≈ 196 µM)
- TGI [10]: > 150 µg/mL

SMILES: O=C1C(Br)=C(c2ccccc2)O/C1=C/C(=O)c1ccc(Br)cc1
- TGI [1]: > 100 µM
- TGI [9]: > 100 µM
- TGI [2]: > 100 µM
- TGI [3]: > 100 µM
- TGI [4]: > 100 µM
- TGI [5]: > 100 µM
- TGI [6]: 52.4 µM
- TGI [7]: > 100 µM
- TGI [8]: > 100 µM

SMILES: CCOC(=O)c1[nH]c(Br)c(-c2ccc(OC)c(OC)c2)c1Br
- TGI [1]: 8.59 µM
- TGI [2]: 55.2 µM
- TGI [3]: 13.4 µM
- GI50 [4]: 7.83 µM
- TGI [5]: 1.44 µM
- TGI [6]: 1.99 µM
- GI50 [8]: 10.4 µM
- TGI [8]: 43.3 µM
- TGI [10]: > 100 µM

SMILES: [N-]=[N+]=NC1OC(=O)C(Cl)=C1N=P(c1ccccc1)(c1ccccc1)c1ccccc1 (centres undefined)
- TGI [1]: 8.72 µM
- TGI [9]: > 10 µM
- TGI [2]: > 10 µM
- TGI [5]: > 10 µM
- TGI [6]: > 10 µM
- TGI [7]: > 10 µM
- TGI [8]: > 10 µM
- TGI [10]: > 10 µM

SMILES: Cc1cc2/c(=C\c3ccc(N(C)C)cc3)c3ccccc3n2[n+]1C
- TGI [1]: 1.32 µM
- TGI [9]: 1.58 µM
- TGI [2]: 6.04 µM
- TGI [4]: 3.23 µM
- TGI [5]: 1.78 µM
- TGI [6]: 6.44 µM
- TGI [7]: > 100 µM
- TGI [8]: 8.79 µM
- TGI [10]: > 100 µM

SMILES: COc1c(/C=C/C(C)(C)O)cc(C2CC(=O)c3c(O)cc(O)cc3O2)cc1CC=C(C)C (centres undefined)
- TGI [1]: 35 µM
- TGI [9]: 20.5 µM
- TGI [2]: 15.8 µM
- TGI [4]: 18.3 µM
- TGI [5]: 14.4 µM
- TGI [6]: 30.8 µM
- TGI [7]: > 50 µM
- TGI [10]: 32 µM

SMILES: CN(C(=O)Cc1ccccc1)n1cnn(CC(=O)OC(C)(C)C)c1=S
- TGI [1]: > 10 µM
- TGI [9]: > 10 µM
- TGI [2]: > 10 µM
- TGI [3]: > 10 µM
- TGI [4]: > 10 µM
- TGI [5]: > 10 µM
- TGI [7]: > 10 µM
- TGI [8]: > 10 µM
- TGI [10]: > 10 µM

SMILES: CCC1(N=[N+]=[N-])C(=O)c2ccccc2N(C)C1=O (centres undefined)
- TGI [1]: > 100 µM
- TGI [2]: > 100 µM
- TGI [3]: > 100 µM
- TGI [4]: > 100 µM
- TGI [5]: > 100 µM
- TGI [6]: > 100 µM
- TGI [7]: > 100 µM
- TGI [8]: > 100 µM

SMILES: Cc1nc(CC#N)n[nH]1
- TGI [1]: > 100 µM
- TGI [9]: > 100 µM
- TGI [2]: > 100 µM
- TGI [3]: > 100 µM
- TGI [4]: > 100 µM
- TGI [5]: > 100 µM
- TGI [7]: > 100 µM
- TGI [8]: > 100 µM
- TGI [10]: > 100 µM

SMILES: COc1ccc(C(=O)O[C@H]2[C@@H]3C=CO[C@@H](OC4OC(CO)C(O)C(O)C4O)[C@@H]3[C@@]3(CO)O[C@@H]23)cc1O (some centres undefined)
- TGI [1]: > 100 µM
- TGI [2]: > 100 µM
- TGI [4]: > 100 µM
- TGI [5]: > 100 µM
- TGI [6]: > 100 µM
- TGI [7]: > 100 µM
- TGI [8]: > 100 µM

SMILES: CCN(CC)CCCNc1ccc2nc(C)n3c4ccc(O)cc4c(=O)c1c23
- TGI [1]: 17 µM
- TGI [9]: 20.6 µM
- TGI [2]: 16.4 µM
- TGI [4]: 15.8 µM
- TGI [5]: 21 µM
- TGI [6]: > 21.1 µM
- TGI [7]: 46.7 µM
- TGI [8]: 24.4 µM
- TGI [10]: 29.6 µM

SMILES: Cc1cnc2sn(-c3ccc([N+](=O)[O-])cc3)c(=O)c2c1
- TGI [1]: > 100 µM
- TGI [9]: > 100 µM
- TGI [2]: > 100 µM
- TGI [3]: > 100 µM
- TGI [4]: > 100 µM
- TGI [5]: > 100 µM
- TGI [8]: > 100 µM
- TGI [10]: > 100 µM

SMILES: O=S(=O)(O)c1cc(N=Nc2c(O)ccc3ccccc23)ccc1/C=C/c1ccc(N=Nc2c(O)ccc3ccccc23)cc1S(=O)(=O)O
- TGI [9]: > 100 µM
- TGI [2]: > 100 µM
- TGI [4]: > 100 µM
- TGI [5]: > 100 µM
- TGI [8]: > 100 µM
- TGI [10]: > 100 µM

SMILES: COc1ccc(C(c2c(O)c3ccccc3n(-c3ccccc3)c2=O)c2c(O)c3ccccc3n(-c3ccccc3)c2=O)cc1
- TGI [1]: > 100 µM
- TGI [2]: > 100 µM
- TGI [3]: > 100 µM
- TGI [4]: > 100 µM
- TGI [5]: > 100 µM
- TGI [7]: > 100 µM
- TGI [8]: > 100 µM

SMILES: CC(=O)OC12C3C4C1C1C2C3C41OC(C)=O (centres undefined)
- TGI [1]: > 100 µM
- TGI [2]: > 100 µM
- TGI [3]: > 100 µM
- TGI [4]: > 100 µM
- TGI [5]: > 100 µM
- TGI [6]: > 100 µM
- TGI [7]: > 100 µM
- TGI [8]: > 100 µM
- TGI [10]: > 100 µM

SMILES: Cc1c2ccncc2cc2c1[nH]c1ccccc12
- TGI [1]: 6.59 µM
- TGI [4]: 15.9 µM
- TGI [5]: 7.65 µM
- TGI [6]: 6.36 µM
- TGI [7]: 15 µM
- TGI [8]: 16.3 µM
- TGI [10]: > 56.4 µM

SMILES: CO/N=C(/C)c1cccc(Nc2nc3ccccc3c3[nH]c4ccccc4c23)c1
- TGI [1]: 27.2 µM
- TGI [9]: 20.4 µM
- TGI [3]: > 100 µM
- TGI [4]: 23.1 µM
- TGI [5]: 30.9 µM
- TGI [6]: 53.3 µM
- TGI [10]: 25.1 µM
